Key:
[1] = test system: porcine cusp tissue; experiment: Calcium and phosphorus content after subcutaneous implantation in rats (Example 2); assay type: in vivo, Sprague-Dawley rats; details: 60 days of implantation
Experimental: (§1) In a sterile hood, pieces of glutaraldehyde-fixed bovine pericardium tissue (Mitroflow Inc.; Richmond, British Columbia, Canada) porcine cusp tissue (Labcor; Belo Horizonte, Brazil) and porcine wall tissue (Labcor Inc.) were transferred into sterile tubes containing 1,2-octanediol solutions (5% […] (Aldrich Chemical), 40% ethanol and 55% 10 mM HEPES buffer). The tubes were transferred to a 37° C. incubator and maintained at 37° C. with gentle agitation for about 16 hours. After the treatment, the samples were transferred to solutions comprising 22% ethanol in 10 mM HEPES and stored for 14 days at 4° C. The final tissue to volume ratio for all treatments was approximately 27 ml/g.
(§2) For N-methyl pyrolidinone (NMP) treatments, pieces of glutaraldehyde-fixed bovine pericardium tissue (Mitroflow Inc.), porcine cusp tissue (Labcor Inc.) and porcine wall tissue (Labcor Inc.) were transferred into sterile tubes containing NMP. The tubes were incubated at room temperature for about 16 hours with occasional manual agitation. After the treatment, the tissue samples were transferred to 22% HEPES-buffered ethanol solutions and stored for 14 days at 4° C.
(§3) Samples treated with the 1,2-octanediol solutions and with NMP, as well as untreated samples of each tissue type, were provided to Charles Rivers Laboratories (Wilmington, Mass.) for implantation into rats. Seven rats per treatment group were analyzed. Prior to implantation, the tissue samples were rinsed for 3 minutes×3 in sterile PBS, accompanied by gentle agitation. The samples were implanted subcutaneously approximately 1 cm from the abdominal midline in 3 week old Sprague-Dawley rats and retrieved after 60 days of implantation. Unimplanted samples (one per tissue type per treatment) were used as unimplanted controls. After retrieval, the samples were analyzed for their calcium and phosphorus contents using a standard ICP methodology.

[2] = test system: porcine wall tissue; experiment: as above; assay type: in vivo, Sprague-Dawley rats; details: 60 days of implantation
Experimental: as §1, §2, §3

[3] = test system: glutaraldehyde-fixed bovine pericardium tissue; experiment: Calcium and phosphorus content after subcutaneous implantation in rats (Examples 2 and 3); assay type: in vivo, Sprague-Dawley rats; details: for Calcuim / Phosphorus: Bovine Pericardium, 60 days of implantation
Experimental: as §1, §2, §3
In a sterile hood, pieces of glutaraldehyde-fixed bovine pericardium tissue (Mitroflow Inc.) were transferred into sterile tubes containing a 45% solution of HEPES-buffered ethanol (45% ethanol, 55% 10 mM HEPES buffer). The tubes were transferred to a 37° C. incubator and maintained at 37° C. with gentle agitation for about 16 hours. After the treatment, the samples were transferred to fresh solution of 45% HEPES-buffered ethanol and stored for 14 days at room temperature (˜25° C.). The final tissue to volume ratio for all treatments was approximately 27 ml /g.
as §3, with “45% ethanol solution,” for “1,2-octanediol solutions and with NMP,”, “by ICP.” for “using a standard ICP methodology.”

[4] = test system: glutaraldehyde fixed bovine pericardium; experiment: Calcification after subcutaneous implantation in rats (Example 1); assay type: in vivo, Sprague-Dawley rats; details: alcohol treatment 24 hrs, retrieved after 60 days
Experimental: Bovine pericardium was obtained fresh from the abattoir, trimmed to remove excess fat, and stored in a high osmolarity solution until use. Prior to fixation, the tissue was rinsed thoroughly in phosphate buffered saline (PBS) having a pH of 7.3-7.4. A 0.25% solution of glutaraldehyde was prepared by adding 2.5 ml of a 50% glutaraldehyde solution (Aldrich Chemical) to 500 ml using PBS. Fifteen 1 cm×1 cm samples of bovine pericardium tissue were added to the glutaraldehyde solution and the tube was stored at room temperature for 7 days.
In a sterile hood, glutaraldehyde fixed bovine pericardium pieces were washed with sterile PBS (3 washes, 10 minutes each). The samples were then immersed in a sterile filtered solution of 40% ethanol, 5% octanol, 55% water and treated for 24 hours at room temperature. The tissue was then washed with sterile PBS (3 washes, 10 minutes each), and in sterile filtered 45% ethanol in PBS for about 30 minutes. […]
The calcium content of the retrieved samples was determined by hydrolyzing the samples under acidic conditions and analyzing the digested samples using standard inductively coupled plasma (ICP) emission spectrophotometry. […] The resulting digested sample was diluted with water and analyzed using an ICP spectrophotometer (Varian Inc.; Liberty 100/200 ICP-OCS).

[5] = Shrinkage temperature by differential scanning calorimetric analysis; assay type: physicochemical, bovine
Experimental: The samples were then analyzed to evaluate the presence of extractable proteins and to determine shrinkage temperatures.
The shrinkage temperatures of the treated tissues were also determined using standard differential scanning calorimetric analysis. Typically, 2-10 mg of tissue was heated at the rate of 10° C. per minute under nitrogen atmosphere. The onset of the endotherm observed at about 60-90° C. is conventionally attributed to a shrinkage transition, and was used as the shrinkage temperature. An increase in the shrinkage temperature is an indication that cross-linking has occurred.
For these experiments, bovine pericardium samples were placed in 0.25% solutions of glutaraldehyde in PBS where they remained at room temperature for about 7 days. The cross-linked tissues were then subjected to either 1,2-octanediol or NMP treatments, as described above. The treated samples were then analyzed for extractable proteins and to determine shrinkage temperatures.

[6] = treated at 37° C. about 16 hours (Example 3)

Q: For `CCCCCCC(O)CO` (centres unmarked) [1,2-octanediol], which Calcuim [1] is on record?
A: 44.1 μg/mg tissue

Q: And the Phosphorus [1]?
A: 21.9 μg/mg tissue

Q: And the Calcuim [2]?
A: 106.4 μg/mg tissue

Q: And the Phosphorus [2]?
A: 53.0 μg/mg tissue

Q: What about the Calcuim [3] of the same compound?
A: 3.4 μg/mg tissue

Q: And the Phosphorus [3]?
A: 0 μg/mg tissue

Q: Which results are given for `CCO` [45% EtOH, ethanol]?
A: Calcuim [3, 6]: 3.4 μg/mg tissue; Phosphorus [3, 6]: 0.0 μg/mg tissue; calcium and phosphorus levels compared with no anticalcification treatment ([3]; Example 3): significant reduction; Calcium ([4]; glutaraldehyde 0.25%, 14 days (45% EtOH) or 7 days (octanol), ICP): 168 μg/mg dry tissue; Average von Kossa Grading ([4]; graded from 0 (none) to 5 (severe)): 5

Q: For `CN1CCCC1=O` [NMP, N-methyl pyrolidinone], which “effect on shrinkage temperature compared with untreated tissue” value [5] is on record?
A: no significant effect

Q: And the “Shrink Temperature” value ([5]; glutaraldehyde 0.25% about 7 days, then post-fixation treatment)?
A: 85.6 °C

Q: And the Calcuim [1]?
A: 14.7 μg/mg tissue

Q: And the Phosphorus [1]?
A: 7.9 μg/mg tissue

Q: And the Calcuim [2]?
A: 111.9 μg/mg tissue

Q: What about the Phosphorus [2] of the same compound?
A: 55.2 μg/mg tissue

Q: What about the Calcuim [3] of the same compound?
A: 8.0 μg/mg tissue

Q: And the Phosphorus [3]?
A: 3.4 μg/mg tissue

Q: And the “calcium and phosphorus levels of explanted tissues” value ([3]; all tissue types, most pronounced with bovine pericardium)?
A: significantly reduced

— patent publication US6479079B1, “Anticalcification treatments for fixed biomaterials” (Sulzer Carbomedics Inc., priority 1999, dated 2002)
